“And” between values parts separate entries of the source, which are not always exact repeats. Equal entries are not always repeated. Where two headings read alike, the source gives them in different places.
Test system: H9 cells
Test: qHTS for survival of dissociated H9 cells (CellTiter-Glo, 24 hours after seeding)
Format: cell-based, human
From the text: FIG. 2 schematically illustrates qHTS procedure.
All the screed compounds were received pre-plated at the pre-determined concentrations. […] Curve classification is explained in Huang et al. “Chemical genomics profiling of environmental chemical modulation of human nuclear receptors” Environ. Health. Perspect.

[1] = H9 cell survival normalized to 10 μM Y-27632 (taken to be 100%)
[2] = H9 cell survival, CellTiter-Glo 24 hours after seeding; read-out: AC50 (concentration at 50% efficacy)
[3] = H9 cell survival, normalized to 10 μM Y-27632
[4] = Homo sapiens, H9, 24 h; read-out: Efficacy (activity range between predicted activities at zero and infinite doses, Hill equation)
[5] = Homo sapiens, H9, 24 h; read-out: Max (maximum activity value from all tested concentrations)
[6] = Homo sapiens; H9 cell survival, CellTiter-Glo 24 hours after seeding; read-out: AC50 (concentration at 50% efficacy)
[7] = Homo sapiens, H9, 24 h, H9 cell survival normalized to 10 μM Y-27632 (taken to be 100%); read-out: Max (maximum activity value from all tested concentrations)
[8] = Homo sapiens, H9, 24 h, H9 cell survival, CellTiter-Glo 24 hours after seeding; read-out: AC50 (concentration at 50% efficacy)
[9] = Homo sapiens, H9, 24 h, H9 cell survival, normalized to 10 μM Y-27632; read-out: Efficacy (activity range between predicted activities at zero and infinite doses, Hill equation)

SMILES	Max (maximum activity value from all tested concentrations) [1]	AC50 [2]	Efficacy (activity range between predicted activities at zero and infinite doses, Hill equation) [3]	other results
N#Cc1cc(-c2ccnc(Nc3ccc(N4CCOCC4)cc3)n2)ccc1OC1CCOCC1 [IKK epsilon-IN-1]	28.74%	14.7 µM	30.6	–
C/C=C(/C)C(=O)O[C@H]1C(C)=C[C@]23C(=O)[C@@H](C=C(CO)[C@@H](O)[C@]12O)[C@H]1[C@@H](C[C@H]3C)C1(C)C [Ingenol mebutate]	–	–	–	Emax [4]: 41.4%; Emax [5]: 57.6%; AC50 [6]: 0.118 µM
CNc1ccc([N+](=O)[O-])c(Nc2ccc3[nH]ncc3c2)n1 [KRIBB11]	72.62%	0.585 µM	62.1	–
O=C(c1ccc(/C=C/c2n[nH]c3ccccc23)cc1)N1CCNCC1 [KW-2449]	–	–	–	Emax [7]: 40%; AC50 [8]: 33.2 µM; Emax [9]: 44.5%
O=C(NCc1cccc(O)c1)c1cc2cc(F)ccc2[nH]1 [KX1-004]	102.2%	3.29 µM	103	–
Cc1c[nH]c2ncnc(N3CCC(CN)(C(=O)Nc4cccc(OC(=O)N(C)C)c4)CC3)c12 [LX-7101]	–	–	–	Emax [4]: 21.6%; Emax [5]: 53.7%; AC50 [6]: 2.33 µM
C[C@]12O[C@H](C[C@]1(O)CO)n1c3ccccc3c3c4c(c5c6ccccc6n2c5c31)CNC4=O [Lestaurtinib]	–	–	–	AC50 (Homo sapiens, H9, 24 h, read-out: AC50 (concentration at 50% efficacy)): 1.18 µM; Emax (Homo sapiens, H9, 24 h, read-out: Efficacy (activity range between predicted activities at zero and infinite doses, Hill equation)): 7.59%; Emax (Homo sapiens, H9, 24 h, read-out: Max (maximum activity value from all tested concentrations)): 53%
Cc1nc(N2CCN(C(=O)c3ccco3)CC2)c2c3c(sc2n1)CCCC3 [ML192]	25.23%	0.521 µM	13.5	–
N#CCNC(=O)c1ccc(-c2ccnc(Nc3ccc(N4CCOCC4)cc3)n2)cc1 [Momelotinib]	–	–	–	AC50 [8]: 0.935 µM
C=C(CO)C(=O)O[C@H]1CC(=C)[C@@H]2C[C@H](O)C(=C)[C@@H]2[C@H]2OC(=O)C(=C)[C@@H]21 [NCGC00168845-02]	21.8%	3.61 µM	27.1	–
CN(C)c1ccc(Nc2nc(N)n(C(=O)c3c(F)cccc3F)n2)cc1 [NCGC00244250]	58.27% and 40.04%	6.56 µM and 8.33 µM	23.7 and 39.3	–
CC(C)CC(=O)OC1OC=C(CO[C@@H]2O[C@H](CO)[C@@H](O)[C@H](O)[C@H]2O)C2CC(O)C(O)(CO)C12 (stereo partly shown) [NCGC00347879-02]	30.87%	–	0	–
CC1(CCOC2OC(CO)C(O)C(O)C2O)CCC23OC2(C1)C(O)CC1C(C)(C(=O)O)CCCC13C (stereo not shown) [NCGC00380931-01]	24.96%	11.4 µM	28	–
C[C@@H]1O[C@@H](OC2C(O[C@H]3[C@H](O[C@H]4CC[C@@]5(C)C(CC[C@]6(C)C5CC=C5C7CC(C)(C)CC(O)[C@]7(C)CC[C@]56C)C4(C)C)O[C@H](C(=O)O)[C@@H](O)[C@@H]3O)OC(CO)C(O)C2O)[C@H](O)[C@H](O)[C@H]1O (stereo partly shown) [NCGC00381003-01]	22.06%	2.48 µM	24.5	–
CC(=O)O[C@H]1C(=O)[C@]2(C)C(O)C[C@H]3OC[C@@]3(OC(C)=O)[C@H]2[C@H](OC(=O)c2ccccc2)[C@]2(O)C[C@H](O)C(C)=C1C2(C)C (stereo partly shown) [NCGC00384655-01]	23.91%	1.74 µM	29.1	–
CC1(C)CC[C@]2(C(=O)O[C@@H]3O[C@H](CO[C@@H]4O[C@H](CO)[C@@H](O)[C@H](O)[C@H]4O[C@@H]4O[C@H](CO)[C@H](O)[C@H](O)[C@H]4O)[C@@H](O)[C@H](O[C@@H]4O[C@H](CO)[C@@H](O)[C@H](O)[C@H]4O)[C@H]3O)CC[C@]3(C)C(=CCC4[C@@]5(C)CC[C@H](O[C@@H]6OC[C@@H](O)[C@H](O)[C@H]6O)[C@@](C)(C(=O)O)C5CC[C@]43C)[C@@H]2C1 (stereo partly shown) [NCGC00384798-01]	38.81%	–	0	–
COc1ccc2c(c1O)OC[C@H]1c3ccc(O)cc3O[C@@H]21 [NCGC00384860-01]	22.82%	18.5 µM	29.1	–
C=C1CC[C@@H]2[C@@](C)(CO[C@@H]3O[C@H](CO)[C@@H](O)[C@H](O)[C@H]3O)[C@H](O)CC[C@@]2(C)[C@@H]1CC/C(C)=C/CO[C@@H]1O[C@H](CO)[C@@H](O)[C@H](O)[C@H]1O [NCGC00385284-01]	26.38%	0.001 µM	−31.2	–
C[C@@H]1O[C@@H](O[C@H]2[C@H](O[C@H]3[C@H](O[C@H]4CC[C@@]5(C)C(CC[C@]6(C)C5CC=C5[C@@H]7CC(C)(C(=O)O)C[C@@H](O)[C@]7(C)CC[C@]56C)[C@@]4(C)CO)O[C@H](C(=O)O)[C@@H](O)[C@@H]3O)O[C@H](CO)[C@H](O)[C@@H]2O)[C@H](O)[C@H](O)[C@H]1O (stereo partly shown) [NCGC00385739-01]	23.02%	3.13 µM	24.5	–
COC(=O)c1cc(Br)cnc1N1CCC(NC2CCCCC2)C(O)C1 (stereo not shown) [NCGC00386932-01]	22.59%	0.004 µM	−26.5	–
NS(=O)(=O)c1ccc(Nc2nc(OCC3CCCCC3)c3[nH]cnc3n2)cc1 [NU-6102]	46.11% and 34.8%	–	57.9 and 43.8	–
Cl.Cl.Fc1ccccc1CNCc1ccc(-c2ccnc3[nH]ccc23)cc1 [OXA 06 dihydrochloride]	108.2%	0.736 µM	110	–
CCCCC1C(=O)N(c2ccccc2)N(c2ccc(O)cc2)C1=O (stereo not shown) [OXYPHENBUTAZONE]	22.37%	23.3 µM	25.7	–
CNS(=O)(=O)C[C@H]1CC[C@H](N(C)c2ncnc3[nH]ccc23)CC1 [Oclacitinib (PF-03394197), Oclacitinib]	–	–	–	Emax [7]: 93.8%; AC50 [8]: 20.8 µM; Emax [9]: 99.9%
CC1(C)CC[C@]2(C(=O)O)CC[C@]3(C)C(=CC[C@@H]4[C@@]5(C)CC[C@H](O)C(C)(C)[C@@H]5CC[C@]43C)[C@@H]2C1 [Oleanolic acid]	–	–	–	Emax [7]: 20.3%; AC50 [8]: 0.37 µM; Emax [9]: -10.7%
C[C@@H]1CCN(C(=O)N2CCCC2)C[C@@H]1N(C)c1ncnc2[nH]ccc12 [PF-956980]	47.75%	23.3 µM	53	–
N#Cc1cccc(-c2c[nH]c3ncnc(N4CCOCC4)c23)c1 [PF-06447475]	42.8%	16.5 µM	44.6	–

Source: patent US20210348119A1, “COMPOSITIONS AND METHODS FOR CELL CULTURE” (The United States of America as Represented By The …, priority 2018, published 2021)
